Assays:
[1] = tested on: Del19/T790M/C797S EGFR; test: EGFR degradation HTRF assay in H1975-clone #28 (DTC) cells; type: cell-based; conditions: H1975 # 28 DTC (Del19/T790M/C797S), 16h treatment; for DC50: HTRF; for Dmax (%): maximum percentage of degradation
Summary of the method: (§1)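 EGFR levels quantified by HTRF on lysates after 16 h compound exposure (top 10 uM, 5-fold, 8 points) in single-cell H1975 clones expressing only exogenous mutant EGFR after sgRNA knockout of endogenous copies. DC50 derived by four-parameter logistic fitting of inhibition percentage.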

[2] = target: T1, L858R/T790M/C797S EGFR (Homo sapiens, UniProt P00533, C797S/L858R/T790M); test: EGFR degradation HTRF assay in H1975-clone #25 (LTC) cells; type: cell-based; conditions: 16h treatment; for DC50: H1975 # 25-LTC (L858R/T790M/C797S), HTRF; for Dmax: NCI-H1975, H1975 # 25-LTC (L858R/T790M/C797S), maximum percentage of degradation
T1 construct: expressed in transfected cells; host or cells: H1975 clone #25 (lentiviral over-expression, endogenous EGFR knocked out by sgRNA)
Summary of the method: as §1

T1 sequence (P00533 25-1210 T790M/C797S/L858R): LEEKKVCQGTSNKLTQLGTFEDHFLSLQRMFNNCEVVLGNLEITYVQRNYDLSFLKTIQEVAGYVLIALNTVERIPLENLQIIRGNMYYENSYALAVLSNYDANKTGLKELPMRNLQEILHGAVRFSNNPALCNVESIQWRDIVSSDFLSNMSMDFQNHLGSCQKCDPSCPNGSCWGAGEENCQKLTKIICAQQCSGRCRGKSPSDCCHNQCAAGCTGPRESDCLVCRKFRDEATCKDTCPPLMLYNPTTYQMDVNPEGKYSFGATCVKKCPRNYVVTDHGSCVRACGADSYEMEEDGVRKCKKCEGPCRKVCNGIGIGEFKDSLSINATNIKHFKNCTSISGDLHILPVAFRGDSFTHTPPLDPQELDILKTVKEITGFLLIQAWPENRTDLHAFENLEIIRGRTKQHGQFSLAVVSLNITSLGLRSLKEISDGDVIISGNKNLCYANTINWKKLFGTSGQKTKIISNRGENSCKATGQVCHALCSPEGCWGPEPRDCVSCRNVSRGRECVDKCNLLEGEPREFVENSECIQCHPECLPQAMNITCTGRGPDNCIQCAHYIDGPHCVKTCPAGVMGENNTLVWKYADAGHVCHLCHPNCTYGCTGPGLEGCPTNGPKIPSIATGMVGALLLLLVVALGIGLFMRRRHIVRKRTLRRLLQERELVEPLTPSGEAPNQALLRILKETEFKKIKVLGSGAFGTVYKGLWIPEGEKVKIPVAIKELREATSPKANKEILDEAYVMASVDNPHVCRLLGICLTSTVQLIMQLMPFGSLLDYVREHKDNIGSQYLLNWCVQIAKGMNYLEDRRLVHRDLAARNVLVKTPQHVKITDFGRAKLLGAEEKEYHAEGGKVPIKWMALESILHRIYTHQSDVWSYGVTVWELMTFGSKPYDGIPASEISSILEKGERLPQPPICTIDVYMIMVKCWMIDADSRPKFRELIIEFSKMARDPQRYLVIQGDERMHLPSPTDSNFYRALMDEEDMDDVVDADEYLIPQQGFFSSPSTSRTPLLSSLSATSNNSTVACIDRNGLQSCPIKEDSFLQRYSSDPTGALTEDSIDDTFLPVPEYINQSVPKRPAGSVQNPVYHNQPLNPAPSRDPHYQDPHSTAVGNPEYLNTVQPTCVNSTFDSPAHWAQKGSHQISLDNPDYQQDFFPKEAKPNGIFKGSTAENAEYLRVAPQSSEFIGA

Compound | DC50 [1] [nM] | Dmax (%) [1] [%] | DC50 [2] [nM] | Dmax [2] [%]
Cc1cc2cc(n1)-c1cnn(C)c1OCCC[C@@H](C)CN1/C(=N/C2=O)Nc2ccc(CC3CCN(C(=O)C4CN(c5cc(F)c([C@H]6CCC(=O)NC6=O)c(F)c5)C4)CC3)cc21 [Example 159, (R)-3-(2,6-difluoro-4-(3-(4-(((R,E)-1^1,2^6,7-trimethyl-3-oxo-5^2,5^3-dihydro-1^1H,5^1H-11-oxa-4-aza-5(2,1)-benzo[d]imidazola-2(2,4)-pyridina-1(4,5)-pyrazolacycloundecaphane-5^6-yl)methyl)piperidine-1-carbonyl)azetidin-1-yl)phenyl)piperidine-2,6-dione] | 1.77 | 79.77 | 1.48 | 79.9
Cc1cc2cc(n1)-c1cnn(C)c1OCCC[C@@H](C)CN1/C(=N/C2=O)Nc2ccc(N3CCN(C4CCN(c5cc(F)c([C@H]6CCC(=O)NC6=O)c(F)c5)CC4)CC34CC4)cc21 [Example 418, (R)-3-(2,6-difluoro-4-(4-(4-((R,E)-1^1,2^6,7-trimethyl-3-oxo-5^2,5^3-dihydro-1^1H,5^1H-11-oxa-4-aza-5(2,1)-benzo[d]imidazola-2(2,4)-pyridina-1(4,5)-pyrazolacycloundecaphane-5^6-yl)-4,7-diazaspiro[2.5]octan-7-yl)piperidin-1-yl)phenyl)piperidine-2,6-dione] | 3.2 | 91.56 | 0.517 | 60.7
Cc1cc2cc(n1)-c1cnn(C)c1OCCC[C@@H](C)CN1/C(=N/C2=O)Nc2ccc(N3CCN(C4CCN(c5ccc(C6CCC(=O)NC6=O)nc5)CC4)CC3)cc21 (stereo partly drawn) [Example 373, 3-(5-(4-(4-((R,E)-1^1,2^6,7-trimethyl-3-oxo-5^2,5^1-dihydro-1^1H,5^1H-11-oxa-4-aza-5(2,1)-benzo[d]imidazola-2(2,4)-pyridina-1(4,5)-pyrazolacycloundecaphane-5^6-yl)piperazin-1-yl)piperidin-1-yl)pyridin-2-yl)piperidine-2,6-dione] | 0.656 | 69.22 | 0.47 | 84.9
Cc1cc2cc(n1)-c1cnn(C)c1OCCC[C@@H](C)CN1/C(=N/C2=O)Nc2ccc(C3CCN(C4CCN(c5cc(F)c([C@H]6CCC(=O)NC6=O)c(F)c5)CC4)CC3)cc21 [Example 332, (R)-3-(2,6-difluoro-4-(4-((R,E)-1^1,2^6,7-trimethyl-3-oxo-5^2,5^3-dihydro-1^1H,5^1H-11-oxa-4-aza-5(2,1)-benzo[d]imidazola-2(2,4)-pyridina-1(4,5)-pyrazolacycloundecaphane-5^6-yl)-[1,4′-bipiperidin]-1′-yl)phenyl)piperidine-2,6-dione] | 1.31 | 86.39 | 0.995 | 91.2
Cc1cc2cc(n1)-c1cnn(C)c1OCCC[C@@H](C)CN1/C(=N/C2=O)Nc2ccc(C(=O)N(C)[C@@H]3CCN(CCc4cc(F)c([C@H]5CCC(=O)NC5=O)c(F)c4)C[C@H]3F)cc21 [Example 346, (R,E)-N—((3R,4R)-1-(4-((R)-2,6-dioxopiperidin-3-yl)-3,5-difluorophenethyl)-3-fluoropiperidin-4-yl)-N,1^1,2^6,7-tetramethyl-3-oxo-5^2,5^3-dihydro-1^1H,5^1H-11-oxa-4-aza-5(2,1)-benzo[d]imidazola-2(2,4)-pyridina-1(4,5)-pyrazolacycloundecaphane-5^6-carboxamide] | 0.411 | 78.78 | 0.526 | 84.8
Cc1cc2cc(n1)-c1cnn(C)c1OCC[C@H]1C[C@@H]1CN1/C(=N/C2=O)Nc2ccc(N3CCN(C4CCN(c5ccc(C6CCC(=O)NC6=O)nc5)CC4)CC3)cc21 (stereo partly drawn) [Example 469, 3-(5-(4-(4-((7'S,7^2R,E)-1^1,2^6-dimethyl-3-oxo-5^2,5^3-dihydro-1^1H,5^1H-10-oxa-4-aza-5(2,1)-benzo[d]imidazola-2(2,4)-pyridina-1(4,5)-pyrazola-7(1,2)-cyclopropanacyclodecaphane-5^6-yl)piperazin-1-yl)piperidin-1-yl)pyridin-2-yl)piperidine-2,6-dione] | 0.594 | 76.63 | 0.794 | 82.7
CCN(C(=O)c1ccc2c(c1)N1C[C@H](C)CCCOc3c(cnn3C)-c3cc(cc(C)n3)C(=O)/N=C/1N2)C1CCN(C2CCN(c3cc(F)c([C@H]4CCC(=O)NC4=O)c(F)c3)CC2)CC1 [Example 288, (R,E)-N-(1′-(4-((R)-2,6-dioxopiperidin-3-yl)-3,5-difluorophenyl)-[1,4′-bipiperidin]-4-yl)-N-ethyl-1^1, 2^6,7-trimethyl-3-oxo-5^2,5^3-dihydro-1^1H,5^1H-11-oxa-4-aza-5(2,1)-benzo[d]imidazola-2(2,4)-pyridina-1(4,5)-pyrazolacycloundecaphane-5^6-carboxamide] | 0.488 | 79.62 | 0.662 | 92.8
Cc1cc2cc(n1)-c1cnn(C)c1OCCC[C@@H](C)CN1/C(=N/C2=O)Nc2ccc(N3CCN(CCNc4cc(F)c([C@H]5CCC(=O)NC5=O)c(F)c4)CC3)cc21 (single isomer, unassigned) [Example 368] | 0.623 | 80.06 | 0.546 | 88
Cc1cc2cc(n1)-c1cnn(C)c1OCCCCCN1/C(=N/C2=O)Nc2ccc(CN3CCN(CCc4cc(F)c([C@H]5CCC(=O)NC5=O)c(F)c4)CC3)cc21 [Example 144, (R,E)-3-(4-(2-(4-((1^1,2^6-dimethyl-3-oxo-5^2,5^3-dihydro-1^1H,5^1H-11-oxa-4-aza-5(2,1)-benzo[d]imidazola-2(2,4)-pyridina-1(4,5)-pyrazolacycloundecaphane-5^6-yl)methyl)piperazin-1-yl)ethyl)-2,6-difluorophenyl)piperidine-2,6-dione] | 0.508 | 55.85 | 0.761 | 80.8
Cc1cc2cc(n1)-c1cnn(C)c1OCCC[C@@H](C)CN1/C(=N/C2=O)Nc2ccc(C(=O)N(C)[C@@H]3CCCN(CCc4cc(F)c([C@H]5CCC(=O)NC5=O)c(F)c4)CC3)cc21 [Example 292, (R,E)-N—((R)-1-(4-((R)-2,6-dioxopiperidin-3-yl)-3,5-difluorophenethyl)azepan-4-yl)-N,1^1,2^6,7-tetra methyl-3-oxo-5^2,5^3-dihydro-1^1H,5^1H-11-oxa-4-aza-5(2,1)-benzo[d]imidazola-2(2,4)-pyridina-1(4,5)-pyrazolacycloundecaphane-5^6-carboxamide] | 0.608 | 85.48 | 0.514 | 89.4
Cc1cc2cc(n1)-c1cnn(C)c1OCCCCCN1/C(=N/C2=O)Nc2ccc(C(=O)N(C)C3CCN(CCc4cc(F)c([C@H]5CCC(=O)NC5=O)c(F)c4)CC3)cc21 [Example 238, (R,E)-N-(1-(4-(2,6-dioxopiperidin-3-yl)-3,5-difluorophenethyl)piperidin-4-yl)-N,1^1,2^6-trimethyl-3-oxo-5^2,5^3-dihydro-1^1H,5^1H-11-oxa-4-aza-5(2,1)-benzo[d]imidazola-2(2,4)-pyridina-1(4,5)-pyrazolacycloundecaphane-5^6-carboxamide] | 0.565 | 83.62 | 0.602 | 93.2
COC[C@H]1CN(C2CCN(c3cc(F)c([C@H]4CCC(=O)NC4=O)c(F)c3)CC2)CCN1c1ccc2c(c1)N1C[C@H](C)CCCOc3c(cnn3C)-c3cc(cc(C)n3)C(=O)/N=C/1N2 [Example 385, (R)-3-(2,6-difluoro-4-(4-((R)-3-(methoxymethyl)-4-((R,E)-1^1,2^6,7-trimethyl-3-oxo-5^2,5^3-dihydro-1^1H,5^1H-li-oxa-4-aza-5(2,1)-benzo[d]imidazola-2(2,4)-pyridina-1(4,5)-pyrazolacycloundecaphane-5^6-yl)piperazin-1-yl)piperidin-1-yl)phenyl)piperidine-2,6-dione] | 1.58 | 63.01 | 2.63 | 82.3
Cc1cc2cc(n1)-c1cnn(C)c1OCCC[C@@H](C)CN1/C(=N/C2=O)Nc2ccc(C(=O)N[C@H]3CCN(CCc4cc(F)c([C@H]5CCC(=O)NC5=O)c(F)c4)C[C@H]3F)cc21 [Example 343, (R,E)-N—((3R,4S)-1-(4-((R)-2,6-dioxopiperidin-3-yl)-3,5-difluorophenethyl)-3-fluoropiperidin-4-yl)-1^1,2^6,7-trimethyl-3-oxo-5^2,5^3-dihydro-1^1H,5^1H-11-oxa-4-aza-5(2,1)-benzo[d]imidazola-2(2,4)-pyridina-1(4,5)-pyrazolacycloundecaphane-5^6-carboxamide] | 0.609 | 76.11 | 0.599 | 90.5
Cc1cc2cc(n1)-c1cnn(C)c1OCCC[C@@H](C)CN1/C(=N/C2=O)Nc2ccc(N3CCN(CCc4cc(F)c([C@H]5CCC(=O)NC5=O)c(F)c4)CC3=O)cc21 [Example 366, (R)-3-(2,6-difluoro-4-(2-(3-oxo-4-((R,E)-1^1,2^6,7-trimethyl-3-oxo-5^2,5^3-dihydro-1^1H,5^1H-11-oxa-4-aza-5(2,1)-benzo[d]imidazola-2(2,4)-pyridina-1(4,5)-pyrazolacycloundecaphane-5^6-yl)piperazin-1-yl)ethyl)phenyl)piperidine-2,6-dione] | 0.539 | 84.74 | 0.372 | 91.8
